Reference: US9695155B2, “Herbicidal substituted pyrimidinyloxy benzene compounds” (E. I. DU PONT DE NEMOURS AND COMPANY, priority 2013, dated 2017)

What was measured:
[1] = system: giant foxtail; test: Test A postemergence; type: in vivo, Setaria faberii; details: 0 to 100 scale where 0 is no effect and 100 is complete control
Summary of the method: (§1)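 Compounds in non-phytotoxic solvent with surfactant applied as soil spray preemergence, or postemergence to plants 2-10 cm at one- to two-leaf stage, in loam/sand. After approximately 10 days in greenhouse, injury rated visually versus untreated controls, 0 (no effect) to 100 (complete control).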

[2] = system: corn; test: Test A postemergence; type: in vivo, Zea mays; details: 0 to 100 scale where 0 is no effect and 100 is complete control
Summary of the method: as §1

[3] = system: corn; test: Test C preemergence; type: in vivo, Zea mays; details: for Corn plant response rating: preemergence; for Plant response rating, Corn: Preemergence, 31 g ai/ha, scale 0 to 100, 0 no effect, 100 complete control
Summary of the method: (§2)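 Seeds are planted in blended loam soil and sand and treated preemergence, while seedlings in a peat moss/vermiculite medium receive postemergence sprays at 2 to 18 cm height. All plants stay in the greenhouse for 13 to 15 days before visual comparison with controls on a 0–100 scale.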

[4] = system: large (Lg) crabgrass; test: Test C preemergence; type: in vivo, Digitaria sanguinalis; details: for Crabgrass, Large plant response rating: preemergence; for Plant response rating, Crabgrass, Large: Preemergence, 31 g ai/ha, scale 0 to 100, 0 no effect, 100 complete control
Summary of the method: as §2

[5] = system: lambsquarters; test: Test C preemergence; type: in vivo, Chenopodium album; details: for Lambsquarters plant response rating: preemergence; for Plant response rating, Lambsquarters: Preemergence, 31 g ai/ha, scale 0 to 100, 0 no effect, 100 complete control
Summary of the method: as §2

[6] = system: pigweed; test: Test C preemergence; type: in vivo, Amaranthus retroflexus; details: for Pigweed plant response rating: preemergence; for Plant response rating, Pigweed: Preemergence, 31 g ai/ha, scale 0 to 100, 0 no effect, 100 complete control
Summary of the method: as §2

[7] = system: blackgrass; test: Test C postemergence; type: in vivo, Alopecurus myosuroides
Summary of the method: as §2

[8] = system: wheat, winter; test: Test C postemergence; type: in vivo, Triticum aestivum; details: for Plant response rating, Wheat: scale 0 to 100 (0 no effect, 100 complete control)
Summary of the method: as §2

[9] = system: corn; test: Test C postemergence; type: in vivo, Zea mays
Summary of the method: as §2

[10] = system: giant foxtail; test: Test C postemergence; type: in vivo, Setaria faberii
Summary of the method: as §2

[11] = system: yellow nutsedge; test: Test C postemergence; type: in vivo, Cyperus esculentus; details: for Plant response rating, Nutsedge, Yellow: scale 0 to 100 (0 no effect, 100 complete control)
Summary of the method: as §2

[12] = system: barnyardgrass; test: Test C postemergence; type: in vivo, Echinochloa crus-galli
Summary of the method: as §2

[13] = system: kochia; test: Test C postemergence; type: in vivo, Kochia scoparia
Summary of the method: as §2

[14] = 16 g ai/ha, scale 0 to 100 (0 no effect, 100 complete control)
[15] = 62 g ai/ha, scale 0 (no effect) to 100 (complete control)
[16] = 125 g ai/ha, scale 0 (no effect) to 100 (complete control)
[17] = 16 g ai/ha, postemergence, visual rating, scale 0 to 100 (0 no effect, 100 complete control), 13 to 15 days
[18] = 125 g ai/ha, postemergence, visual rating, scale 0 to 100 (0 no effect, 100 complete control)
[19] = Postemergence, 31 g ai/ha, scale 0 to 100 (0 no effect, 100 complete control), 13 to 15 days
[20] = Postemergence, 62 g ai/ha, scale 0 to 100 (0 no effect, 100 complete control)
[21] = 125 g ai/ha, postemergence, visual rating
[22] = 16 g ai/ha, postemergence, 0 is no effect, 100 is complete control

Q: Which “Plant response rating, Foxtail, Giant” value ([1]; 125 g ai/ha) does the source give for `N#Cc1cnn(-c2c(C#N)cccc2Oc2ncc(F)cn2)c1` [Compound 111] here?
A: 80

Q: And the “Plant response rating, Foxtail, Giant” value ([1]; 500 g ai/ha)?
A: 90

Q: And the “Plant response rating, Corn” value ([2]; 125 g ai/ha)?
A: 30

Q: What about the “Plant response rating, Corn” value ([2]; 500 g ai/ha) of the same compound?
A: 90

Q: What about the “Corn plant response rating” value [3, 14] of the same compound?
A: 5

Q: And the “Corn plant response rating” value [3, 15]?
A: 5

Q: What about the “Corn plant response rating” value [3, 16] of the same compound?
A: 65

Q: And the “Plant response rating, Corn” value [3]?
A: 5

Q: And the “Crabgrass, Large plant response rating” value [4, 14]?
A: 98

Q: What about the “Crabgrass, Large plant response rating” value [4, 15] of the same compound?
A: 100

Q: And the “Crabgrass, Large plant response rating” value [4, 16]?
A: 100

Q: And the “Plant response rating, Crabgrass, Large” value [4]?
A: 100

Q: And the “Lambsquarters plant response rating” value [5, 14]?
A: 50

Q: And the “Lambsquarters plant response rating” value [5, 15]?
A: 100

Q: What about the “Lambsquarters plant response rating” value [5, 16] of the same compound?
A: 100

Q: What about the “Plant response rating, Lambsquarters” value [5] of the same compound?
A: 100

Q: And the “Pigweed plant response rating” value [6, 14]?
A: 75

Q: And the “Pigweed plant response rating” value [6, 15]?
A: 100

Q: And the “Pigweed plant response rating” value [6, 16]?
A: 100

Q: And the “Plant response rating, Pigweed” value [6]?
A: 95

Q: And the “Blackgrass plant response rating” value [7, 17]?
A: 0

Q: What about the “Plant response rating, Blackgrass” value [7, 18] of the same compound?
A: 10

Q: What about the “Plant response rating, Blackgrass” value [7, 19] of the same compound?
A: 0

Q: What about the “Plant response rating, Blackgrass” value [7, 20] of the same compound?
A: 5

Q: What about the “Plant response rating, Wheat” value [8, 21] of the same compound?
A: 5

Q: And the “Plant response rating, Wheat” value ([8]; Postemergence, 62 g ai/ha)?
A: 0

Q: And the “Corn plant response rating” value [9, 17]?
A: 5

Q: What about the “Plant response rating, Corn” value [9, 18] of the same compound?
A: 15

Q: And the “Plant response rating, Corn” value [9, 20]?
A: 10

Q: And the “Foxtail, Giant plant response rating” value [10, 17]?
A: 20

Q: And the “Plant response rating, Foxtail, Giant” value [10, 18]?
A: 65

Q: What about the “Plant response rating, Foxtail, Giant” value [10, 20] of the same compound?
A: 35

Q: And the “Plant response rating, Nutsedge, Yellow” value [11, 21]?
A: 5

Q: And the “Plant response rating, Nutsedge, Yellow” value ([11]; Postemergence, 62 g ai/ha)?
A: 5

Q: What about the “Barnyardgrass plant response rating” value [12, 17] of the same compound?
A: 5

Q: What about the “Plant response rating, Barnyardgrass” value [12, 18] of the same compound?
A: 35

Q: What about the “Plant response rating, Barnyardgrass” value [12, 19] of the same compound?
A: 5

Q: And the “Plant response rating, Barnyardgrass” value [12, 20]?
A: 5

Q: And the “Kochia plant response rating” value [13, 17]?
A: 60

Q: What about the “Plant response rating, Kochia” value [13, 18] of the same compound?
A: 95

Q: And the “Plant response rating, Kochia” value [13, 20]?
A: 90

Q: How did the “Foxtail, Giant plant response rating” value ([1]; 125 g ai/ha) turn out when `Clc1cnc(Oc2cccc(Br)c2-n2cc(Br)nn2)nc1` [Compound 129] was run?
A: 90

Q: What about the “Plant response rating, Foxtail, Giant” value ([1]; 500 g ai/ha) of the same compound?
A: 100

Q: What about the “Corn plant response rating” value ([2]; 125 g ai/ha) of the same compound?
A: 30

Q: And the “Plant response rating, Corn” value ([2]; 500 g ai/ha)?
A: 50

Q: And the “Corn plant response rating” value [3, 14]?
A: 0

Q: And the “Corn plant response rating” value [3, 15]?
A: 5

Q: And the “Corn plant response rating” value [3, 16]?
A: 30

Q: What about the “Plant response rating, Corn” value [3] of the same compound?
A: 5

Q: What about the “Crabgrass, Large plant response rating” value [4, 14] of the same compound?
A: 75

Q: What about the “Crabgrass, Large plant response rating” value [4, 15] of the same compound?
A: 100

Q: What about the “Crabgrass, Large plant response rating” value [4, 16] of the same compound?
A: 100

Q: What about the “Plant response rating, Crabgrass, Large” value [4] of the same compound?
A: 95

Q: What about the “Lambsquarters plant response rating” value [5, 14] of the same compound?
A: 50

Q: And the “Lambsquarters plant response rating” value [5, 15]?
A: 100

Q: And the “Lambsquarters plant response rating” value [5, 16]?
A: 100

Q: What about the “Plant response rating, Lambsquarters” value [5] of the same compound?
A: 40

Q: What about the “Pigweed plant response rating” value [6, 14] of the same compound?
A: 98

Q: And the “Pigweed plant response rating” value [6, 15]?
A: 100

Q: And the “Pigweed plant response rating” value [6, 16]?
A: 100

Q: What about the “Plant response rating, Pigweed” value [6] of the same compound?
A: 100

Q: And the “Plant response rating (0 to 100), Blackgrass” value [7, 22]?
A: 5

Q: What about the “Plant response rating, Blackgrass” value [7, 18] of the same compound?
A: 10

Q: What about the “Plant response rating, Blackgrass” value [7, 19] of the same compound?
A: 5

Q: What about the “Plant response rating, Blackgrass” value [7, 20] of the same compound?
A: 5

Q: What about the “Plant response rating (0 to 100), Wheat” value [8, 22] of the same compound?
A: 0

Q: What about the “Plant response rating, Wheat” value [8, 21] of the same compound?
A: 5

Q: What about the “Plant response rating, Wheat” value ([8]; Postemergence, 62 g ai/ha) of the same compound?
A: 0

Q: And the “Plant response rating (0 to 100), Corn” value [9, 22]?
A: 5

Q: What about the “Plant response rating, Corn” value [9, 18] of the same compound?
A: 15

Q: What about the “Plant response rating, Corn” value [9, 20] of the same compound?
A: 10

Q: And the “Plant response rating (0 to 100), Foxtail, Giant” value [10, 22]?
A: 5

Q: And the “Plant response rating, Foxtail, Giant” value [10, 18]?
A: 10

Q: What about the “Plant response rating, Foxtail, Giant” value [10, 20] of the same compound?
A: 5

Q: What about the “Plant response rating (0 to 100), Nutsedge, Yellow” value [11, 22] of the same compound?
A: 0

Q: What about the “Plant response rating, Nutsedge, Yellow” value [11, 21] of the same compound?
A: 10

Q: What about the “Plant response rating, Nutsedge, Yellow” value ([11]; Postemergence, 62 g ai/ha) of the same compound?
A: 5

Q: And the “Plant response rating (0 to 100), Barnyardgrass” value [12, 22]?
A: 5

Q: What about the “Plant response rating, Barnyardgrass” value [12, 18] of the same compound?
A: 5

Q: What about the “Plant response rating, Barnyardgrass” value [12, 19] of the same compound?
A: 5

Q: And the “Plant response rating, Barnyardgrass” value [12, 20]?
A: 5

Q: What about the “Plant response rating (0 to 100), Kochia” value [13, 22] of the same compound?
A: 90

Q: And the “Plant response rating, Kochia” value [13, 18]?
A: 100

Q: And the “Plant response rating, Kochia” value [13, 20]?
A: 95
